Data: patent US7927785B2, “Methods for in vitro expansion of hematopoietic stem cells” (The Board of Trustees of the University of Illinois, priority 2002, dated 2011)

Key:
NOD/SCID mice = experiment: Hematopoietic colonies cloned from NOD/SCID mouse marrow 7 weeks after human grafts; assay type: in vivo; conditions: for Estimated Number of Human Colonies: % human cells multiplied by total number of colonies; for % Human Cells: pooled colonies stained for human CD45/CD33, grafts 7 weeks earlier
Method: After 7 weeks of passage in vivo of human grafts in NOD/SCID mice, marrow cells from mice were then plated in methylcellulose assays at 100,000 cells/plate as previously described. After 14 days of incubation the number of hematopoietic colonies were enumerated.
Mice were given 300cGy of total body gamma irradiation and human grafts were injected via the tail vein. Cytokines including SCF, IL-3 and GM-CSF at 5 ug/mouse were injected intraperitoneally on alternate days following injection of human grafts during the first week of transplant. Sulfamethoxazole (40 mg/mL) and Trimethoprim (8 mg/mL)(SMX/TMZ; Elkins-Sinn, Cherry Hill, N.J.) were added in the drinking water for 3 days post injection and then subsequently for 3 days beginning the second week of transplant. Mice were sacrificed after 7 weeks. Femurs and tibias were flushed with Hank's balanced salt solution (HBSS) (Biowhittiker) with 2% FBS (Hyclone) and 0.02% sodium azide and cell counts performed. Cells were preincubated with 1 mg/ml of human gamma globulin in staining to block human Fc receptors. Murine Fc receptors were blocked by a second incubation of the cells in 2.4G2 (an anti-mouse Fc receptor moAb). Marrow cells were analyzed by flow cytometry to detect human cell engraftment as previously described.^29 Briefly to quantitate the total number of human cells present an aliquot of cells was stained with anti-CD45-FITC(BD) and anti-CD71-FITC(BD). This aliquot was also stained with anti-CD19-PE(BD) and cyanine-5-succinimidyl-labeled anti-CD34 (BD). After 7 weeks, marrow cells were plated in methylcellulose as previously described. Colonies from these CFC were then pooled and stained with moAb against CD33 and CD45 (BD) to assess the presence of human cells.

[1] = system: adult human bone marrow CD34+ cells; experiment: Phenotypic analysis (FACS) of marrow CD34+ cells after ex vivo culture; assay type: cell-based; conditions: 9 days of culture; single agent; % of total cells
Method: (§1) To promote cell division of isolated CD34^+ cells, a stroma-free suspension culture was established as previously described (Bazil et al., 1995). Tissue culture dishes (35 mm; Costar, Corning, N.Y.) were seeded with 1×10^5 CD34^+cells/well in 2.5 mL Iscove modified Dulbecco medium (IMDM) (Biowhittaker, Walkersville, Md.) containing 30% FBS and a cocktail of cytokines specifically thought to promote exit from G0/G1 in primitive HSC populations which consisted of 100 ng/mL recombinant stem cell factor (SCF), 100 ng/mL FLT-3 ligand, 100 ng/mL thrombopoetin (TPO) and 50 ng/mL of interleukin (IL)-3, (all from Amgen Inc., Thousand Oaks, Calif.).
(§2) Cells were maintained in the media and incubated at 37° C. in a 100%-humidified atmosphere containing 5% CO2 for 48 hours. After intial 16 hours of incubation cells were exposed to the demethylating agent, 5-aza2′deoxycitidine (5azaD) (Sigma Chemicals, St. Louis, Mo.) at a concentration of 10^−6M. After 48 hours, cells were washed by centrifugation and then equally distributed to new tissue culture dishes in 2.5 mL IMDM supplemented with 30% FBS containing cytokines known to promote terminal differentiation of HSC into multiple hematopoietic lineages. The cocktail of cytokines contained 100 ng/mL of SCF, 50 ng/ml of granulocyte colony-stimulating factor (G-CSF), 50 ng/mL of IL-3, 50 ng/ml of IL-6 and 5 units (U)/mL of recombinant erythropoietin (EPO) (Amgen Inc., Thousand Oaks, Calif.). Cells at this time point were exposed to Trichostatin (TSA) (Sigma Chemical., St. Louis, Mo.) at 5 ng/mL and the culture was continued for an additional 7 days. At the end of the culture period cells were counted for viability by the trypan blue exclusion method using an inverted microscope. 5-fluorouracil (5-FU) (Sigma Chemical., St. Louis, Mo.) was used at a concentration of 200 μg/ml and added at the 16 hour time point instead of 5azaD and the cultures carried on as described above with no addition of TSA.
(§3) The phenotypic characteristics of the CD34^+ cells were analyzed using FACS. After 9 days of culture, expanded marrow CD34^+ cells were analyzed for primitive HSC phenotype, previously defined, by using flow activated-cell sorter (FACS) (Becton Dickinson (BD) FACS Calibur, San Jose, Calif.). Cells were stained with anti-human CD34^+ moAb conjugated either to fluorescein isothiocyanate (FITC) or phycoerythrin (PE) and another moAb including anti-CD38, anti-CD117, anti-CD90. To determine the lineage positive cells a panel of moab all conjugated to FITC (anti-CD2, anti-CD14, anti-CD15, anti-CD19 and anti-GlyA) (all antibodies were purchased from BD) were utilized. All anaylsis were paired with the corresponding matched isotype control of the specific moAb utilized. All staining and washes were performed in DPBS (Biowhittaker, Walkersville Md.) and 0.5% BSA (Sigma, Chemicals Co., St. Louis, Mo.). Immediately prior to FACS anaylsis, […] propidium iodide (PI) (Sigma, Chemicals Co., St. Louis, Mo.) was added for the exclusion of nonviable cells for phenotypic analysis. Using Cell-Quest software (BD), at least 10,000 live cells were acquired for each analysis.

[2] = system: adult human bone marrow CD34+ cells; experiment: Ex vivo expansion culture: cell counts and CD34+CD90+ cell numbers; assay type: cell-based; conditions: for Fold changes from the original cells: CD34+CD90+ cells; for Total counts ×10^5: start 1×10^5 CD34+ cells/well; for expansion of CD34+CD90+ cells / Absolute CD34+ Number (×10^4) / Absolute CD34+CD90+ Numbers (×10^4) / Total Mononuclear Cell Number (×10^4): 9 days with cytokines; for Absolute CD34+ Number (×10^4) / Absolute CD34+CD90+ Numbers (×10^4) / Total Mononuclear Cell Number (×10^4) / Fold Expansion of CD34+CD90+: mean of 3 ± SEM; for Fold Expansion of CD34+CD90+: compared to the primary cell numbers
Method: as §1, §2, §3

[3] = 9 days of culture, single agent

Nc1ncn([C@H]2C[C@H](O)[C@@H](CO)O2)c(=O)n1 [5azaD, 5-aza2′deoxycitidine]
Estimated Number of Human Colonies (NOD/SCID mice): 9 | secondary hematopoietic colonies from marrow of grafted mice (NOD/SCID mice; plated in semisolid media with human cytokines): formed significant numbers of secondary hematopoietic colonies | % Human Cells (NOD/SCID mice): 12% | CD34+ CD90+ % [1]: 7% | CD34+ CKit lo % [1]: 19% | CD34+ Lin− % [1]: 30% | CD34+CD38− % [1]: 20% | CD34+CD133+ % [1]: 12% | Total CD34+ % [1]: 30% | % CD34+ of all cells [2, 3]: 26% | % CD34+ thy-1+ cells [2, 3]: 6% | Absolute CD34+ thy-1+ cells ×10^5 [2, 3]: 0.15 ×10^5 | Absolute CD34 counts ×10^5 [2, 3]: 0.65 ×10^5 | Fold changes from the original cells [2, 3]: 0.7 fold | Total counts ×10^5 [2, 3]: 2.5 ×10^5 | expansion of CD34+CD90+ cells [2]: more limited expansion | Absolute CD34+ Number (×10^4) [2]: 10.0 ± 4.0 ×10^4 | Absolute CD34+CD90+ Numbers (×10^4) [2]: 4.0 ± 1.7 ×10^4 | Total Mononuclear Cell Number (×10^4) [2]: 32.0 ± 5.0 ×10^4 | Fold Expansion of CD34+CD90+ [2]: 1.7 ± 0.8 fold

CC(/C=C/C(=O)NO)=C\[C@@H](C)C(=O)c1ccc(N(C)C)cc1 [TSA, Trichostatin A]
Estimated Number of Human Colonies (NOD/SCID mice): 0 | % Human Cells (NOD/SCID mice): 0% | CD34+ CD90+ % [1]: 0.8% | CD34+ CKit lo % [1]: 3% | CD34+ Lin− % [1]: 4% | CD34+CD38− % [1]: 1.8% | CD34+CD133+ % [1]: 0.45% | Total CD34+ % [1]: 4% | % CD34+ of all cells [2, 3]: 3.9% | Absolute CD34+ thy-1+ cells ×10^5 [2, 3]: 0.31 ×10^5 | Absolute CD34 counts ×10^5 [2, 3]: 1.7 ×10^5 | Fold changes from the original cells [2, 3]: 1.4 fold | Total counts ×10^5 [2, 3]: 46 ×10^5 | expansion of CD34+CD90+ cells [2]: more limited expansion | Absolute CD34+ Number (×10^4) [2]: 19.0 ± 1.0 ×10^4 | Absolute CD34+CD90+ Numbers (×10^4) [2]: 4.0 ± 1.0 ×10^4 | Total Mononuclear Cell Number (×10^4) [2]: 470.0 ± 87.0 ×10^4 | Fold Expansion of CD34+CD90+ [2]: 1.8 ± 0.4 fold
